Assay results taken from patent US5215983A, “Carbapenem compounds” (Fujisawa Pharmaceutical Co., Ltd., priority 1989, dated 1993).

Tested on: P. aeruginosa 2
Test: in vitro Antimicrobial Activity (two-fold agar-plate dilution method)
Format: cell-based
Conditions: Pseudomonas aeruginosa, 10^6 viable cells per ml, heart infusion agar, 37° C. for 20 hours, read-out: MIC (minimal inhibitory concentration)
Procedure: in vitro Antimicrobial Activity was determined by the two-fold agar-plate dilution method as described blow.
One loopful of an overnight culture of a test strain in Trypticase-soy broth (10^6 viable cells per ml) was streaked on heart infusion agar (HI-agar) containing graded concentrations of the test compound, and the minimal inhibitory concentration (MIC) was expressed in terms of μg/ml after incubation at 37° C. for 20 hours.

MIC: 0.39 µg/mL
Structure (SMILES): C[C@@H](O)[C@H]1C(=O)N2C(C(=O)O)=C(S[C@@H]3CN[C@H](CN4CCCn5c4cc[n+]5C)C3)[C@H](C)[C@H]12 [Example 1-3, (4R,5S,6S)-6-[(1R)-1-hydroxyethyl]-4-methyl-3-[(2S,4S)-2-{1-methyl-4,5,6,7-tetrahydro-4-pyrazolo[1,5-a]pyrimidinio}methylpyrrolidin-4-yl]thio-7-oxo-1-azabicyclo[3.2.0]-hept-2-ene-2-carboxylic acid chloride]
